From patent US6989263B1, “Method for identifying and using compounds that inactivate HIV-1 and other retroviruses by attacking highly conserved zinc fingers in the viral nucleocapsid protein” (The United States of America as represented by the …, priority 1994, dated 2006)
“Also recorded” adds a separate entry of the source.

The molecules below were run against T1, p7NC (Human immunodeficiency virus type 1 group M subtype B, UniProt P05888) (assay: HPLC analysis of reaction products of purified p7NC with reagent). Settings: not given.
T1 construct: The NC protein of HIV-1 (MN) p7NC was expressed in E. coli; made in house; host or cells: E. coli (vector pMAL-c)
Type: biochemical, HIV-1
Parameters: key to Protein (HPLC): reaction products / Protein (HPLC): reaction rate: formation of non-native, intra-protein disulfide links (designated “Disulfides”); some of the reagents form adducts with the cysteine residues as well (designated “Adducts”); slow: “Slow” reactions are those in which greater than 10% of the p7NC protein remained in its native form after the 10 minute incubation with reagent; very slow: “Very slow” reactions are those in which greater than 50% of the p7NC protein remained in its native form after the 10 minute incubation with reagent; fast: “Fast” reactions result in complete transformation of the p7NC protein to non-native conformations during the 10 minute incubation period
From the text: Highly purified retroviral NC proteins can be produced by expression from vectors generated through recombinant DNA technology. These proteins when reconstituted with zinc (see, Summers, et al., Protein Science 1:563–567 (1992) for methods), provide the source of the NC proteins containing the zinc fingers that are the targets for attack by the compounds of this invention. When the zinc fingers in NC proteins react with identified compounds, the reaction produces a covalent change in the NC protein, and the modified protein can be separated from the unreacted protein by, for example, reversed phase HPLC.
Samples of p7NC and apo-p7 were reacted with varying amounts of cupric chloride and resulting products separated by HPLC. The reactions were carried out using 44.3 μM protein (p7NC or apo-p7) in 0.1 M Tris-HCl, pH 7.4, for 6 minutes at room temperature with varying concentrations of CuCl2 to achieve the indicated ratios of reactants, in a final volume of 0.7 ml. Chromatography was carried out on the resulting products at pH 2 (0.05% trifluoroacetic acid) on μBondapak™ C-18 (3.9×300 mm) at 1.0 ml/minute using an acetonitrile gradient (0–17%, 20 ml; 17–20%, 60 ml; 20–60%, 10 ml). Elution positions of unreacted protein (p7NC or apo-p7) are indicated as apo-p7.
A two-fold excess of NOBA was reacted with p7NC, and the products were separated by HPLC (FIG. 10) as described above for Cu^+2 and p7NC. Elution positions for the reactants (NOBA and unreacted p7NC) and products, reacted p7NC, NOBA, HABA and AzoxyBA are indicated and an elution profile is included in FIG. 10. NOBA and AzoxyBA were supplied by Octamer, Inc. (Mill Valley, Calif.) and used as HPLC standards.
The disulfide reagent of choice (each available from the Aldrich Chemical Company (Milwaukee, Wis.)) was incubated for 10 minutes with purified p7NC protein (63 μM) at a ratio of 6 molecules of reagent to 1 molecule of NC protein (there are 6 cysteine thiols per NC protein). The formation of non-native protein conformations was monitored by HPLC as described above. […] Generally, the inactivation proceeds by formation of non-native, intra-protein disulfide links (designated “Disulfides”), but some of the reagents form adducts with the cysteine residues as well (designated “Adducts”). “Slow” reactions are those in which greater than 10% of the p7NC protein remained in its native form after the 10 minute incubation with reagent. “Very slow” reactions are those in which greater than 50% of the p7NC protein remained in its native form after the 10 minute incubation with reagent. “Fast” reactions result in complete transformation of the p7NC protein to non-native conformations during the 10 minute incubation period.

| Structure (SMILES) | reaction with purified p7NC (HPLC), in words |
| --- | --- |
| CCN1C(=O)C=CC1=O [NEM, N-ethylmaleimide] | form adducts with the p7NC protein |
| NC(=O)SCC(=O)NNc1ccccc1 [2-(Carbamoylthio)-Acetic Acid 2-Phenylhydrazide] | caused intra-chain disulfide formation |

Same assay, conditions: 63 μM p7NC, 6 reagent : 1 protein, 10 minutes

| Structure (SMILES) | Protein (HPLC): reaction products | Protein (HPLC): reaction rate |
| --- | --- | --- |
| CS(=O)(=O)c1ccc(SSc2ccc(S(C)(=O)=O)cc2[N+](=O)[O-])c([N+](=O)[O-])c1 [4-Methylsulfonyl-2-Nitrophenyl Disulfide] | Disulfides |  |
| O=C(O)c1cc(SSc2ccc([N+](=O)[O-])c(C(=O)O)c2)ccc1[N+](=O)[O-] [5,5-Dithiobis(2-Nitrobenzoic Acid)] | Disulfides; also recorded: Adducts | (fast) |
| O=[N+]([O-])c1ccc(Cl)c(SSc2cc([N+](=O)[O-])ccc2Cl)c1 [2-Chloro-5-Nitrophenyl Disulfide] | Disulfides |  |
| CCOC(=O)Nc1ccccc1SSc1ccccc1NC(=O)OCC [2-(Ethoxycarboxamido)phenyl Disulfide] | Disulfides; also recorded: Adducts |  |
| Nc1cc(Cl)ccc1SSc1ccc(Cl)cc1N [2-Amino-4-Chlorophenyl Disulfide] | Disulfides; also recorded: Adducts | (fast) |
| CCN(CC)CCSSCCN(CC)CC [2-(Diethylamino)ethyl Disulfide] | Disulfides |  |
| O[C@@H]1CSSC[C@H]1O (relative stereo) [Trans-1,2-Dithiane-4,5-Diol] | Disulfides | (slow) (“Slow” reactions are those in which greater than 10% of the p7NC protein remained in its native form after the 10 minute incubation with reagent) |
| CC(=O)Nc1ccc(SSc2ccc(NC(C)=O)cc2)cc1 [4-Acetamidophenyl Disulfide] | Disulfides | (slow) (“Slow” reactions are those in which greater than 10% of the p7NC protein remained in its native form after the 10 minute incubation with reagent) |
| Nc1c(SSc2ccc3ccccc3c2N)ccc2ccccc12 [2,2-Dithiobis(1-Naphtylamine)] | Disulfides; also recorded: Adducts | (fast) |
| Cc1ccc(SSc2ccc([N+](=O)[O-])cc2)cc1 [4-Nitrophenyl p-Tolyl Disulfide] | Disulfides; also recorded: Adducts | (slow) (“Slow” reactions are those in which greater than 10% of the p7NC protein remained in its native form after the 10 minute incubation with reagent) |
| COc1cccc(SSc2cccc(OC)c2OC)c1OC [2,3-Dimethoxyphenyl Disulfide] | Adducts |  |
| CSSC(=O)c1ccccc1 [Benzoylmethyl Disulfide] | Adducts |  |
| Cc1ccc(SSc2ccc([N+](=O)[O-])cc2[N+](=O)[O-])cc1 [2,4-Dinitrophenyl p-Tolyl Disulfide] | Disulfides; also recorded: Adducts | (fast) |
| CC(=O)Nc1ccccc1SSc1ccccc1NC(C)=O [2-Acetamidophenyl Disulfide] | Disulfides; also recorded: (Adducts) |  |
| c1cc(SSc2ccncc2)ccn1 [Aldrithiol-4] | Disulfides |  |
| O=[N+]([O-])c1cccc(SSc2cccc([N+](=O)[O-])c2)c1 [3-Nitrophenyl Disulfide] | Disulfides |  |
| O=C(O)CCSSCCC(=O)O [3,3-Dithiodipropionic Acid] | Disulfides | (slow) (“Slow” reactions are those in which greater than 10% of the p7NC protein remained in its native form after the 10 minute incubation with reagent) |
| Nc1ccccc1SSc1ccccc1N [2-Aminophenyl Disulfide] | Disulfides; also recorded: Adducts | (slow) (“Slow” reactions are those in which greater than 10% of the p7NC protein remained in its native form after the 10 minute incubation with reagent) |
| Cc1cc(SSc2cc(C)c3ccccc3n2)nc2ccccc12 [4-Methyl-2-Quinolyl Disulfide] | Disulfides; also recorded: Adducts | (slow) (“Slow” reactions are those in which greater than 10% of the p7NC protein remained in its native form after the 10 minute incubation with reagent) |
| c1ccc2nc(SSc3ccc4ccccc4n3)ccc2c1 [2-Quinolyl Disulfide] | Disulfides; also recorded: Adducts | (slow) (“Slow” reactions are those in which greater than 10% of the p7NC protein remained in its native form after the 10 minute incubation with reagent) |
| O=[N+]([O-])c1ccc(SSc2ccc([N+](=O)[O-])cc2)cc1 [4-Nitrophenyl Disulfide] | Disulfides; also recorded: Adducts | (slow) (“Slow” reactions are those in which greater than 10% of the p7NC protein remained in its native form after the 10 minute incubation with reagent) |
| Cc1ccc([S+]([O-])[S+]([O-])c2ccc(C)cc2)cc1 (stereo not drawn) [p-Tolyl Disulfoxide] | Disulfides | (slow) (“Slow” reactions are those in which greater than 10% of the p7NC protein remained in its native form after the 10 minute incubation with reagent) |
| CCOC(=S)SSC(=S)OCC [O,O-Diethyl Dithiobis-(Thioformate)] | Disulfides; also recorded: Adducts |  |
| CC(C)OC(=S)SSC(=S)OC(C)C [Isopropylxanthic Disulfide] | Disulfides |  |
| O=[N+]([O-])c1cc(SSc2ccc(Cl)c([N+](=O)[O-])c2)ccc1Cl [4-Chloro-3-Nitrophenyl Disulfide] | Disulfides; also recorded: Adducts |  |
| Clc1cc(Cl)c(SSc2cc(Cl)c(Cl)cc2Cl)cc1Cl [2,4,5-Trichlorophenyl Disulfide] | Disulfides |  |

Same assay, conditions: after a 10 minute incubation

| Structure (SMILES) | p7NC species in non-native conformations |
| --- | --- |
| NC(=O)SCC(=O)NNc1ccccc1 [2-(Carbamoylthio)-Acetic Acid 2-Phenylhydrazide] | most |
